Test results as given in ChEMBL document CHEMBL1144507, “Synthesis and antifungal activity of (Z)-5-arylidenerhodanines” (2007).

Legend:
Nannizzia gypsea = experiment: Antifungal activity against Microsporum gypseum C115 after 48 hrs; type: functional
Trichophyton rubrum = experiment: Antifungal activity against Trichophyton rubrum C113 after 48 hrs; type: functional
Trichophyton benhamiae = experiment: Antifungal activity against Trichophyton mentagrophytes ATCC 9972 after 48 hrs; type: functional, Arthroderma benhamiae; settings: ATCC 9972, 48 h
Candida albicans = experiment: Antifungal activity against Candida albicans ATCC 10231 after 48 hrs; type: functional; settings: ATCC 10231, 48 h
Saccharomyces cerevisiae = experiment: Antifungal activity against Saccharomyces cerevisiae ATCC 9763 after 48 hrs; type: functional; settings: ATCC 9763, 48 h
Cryptococcus neoformans = experiment: Antifungal activity against Cryptococcus neoformans ATCC 32264 after 48 hrs; type: functional; settings: ATCC 32264, 48 h
Aspergillus niger = experiment: Antifungal activity against Aspergillus niger ATCC 9029 after 48 hrs; type: functional; settings: ATCC 9029, 48 h
Aspergillus fumigatus = experiment: Antifungal activity against Aspergillus fumigatus ATCC 26934 after 48 hrs; type: functional; settings: ATCC 26934, 48 h
Aspergillus flavus = experiment: Antifungal activity against Aspergillus flavus ATCC 9170 after 48 hrs; type: functional; settings: ATCC 9170, 48 h

Measured: MIC

O=C1NC(=S)S/C1=C\c1ccc2c(c1)OCO2
> 250 µg/mL: all assays above

COc1ccc(/C=C2\SC(=S)NC2=O)c(OC)c1OC
> 250 µg/mL: all assays above

COc1ccc(/C=C2\SC(=S)NC2=O)cc1
> 250 µg/mL: all assays above
